The values that follow come from patent publication US9777020B2, “Furo-3-carboxamide derivatives and methods of use” (AbbVie Inc., priority 2014, dated 2017).

SMILES strings stand for the structures.

The target of the assay is TrkA (Homo sapiens (Human), UniProt P04629). As to the kind of experiment: TrkA kinase HTRF enzyme inhibition assay. The assay is classed as biochemical. As to conditions: TrkA pre-incubated with 200 μM ATP. As for the experimental part:
TrkA enzyme was obtained from Invitrogen (as catalog numbers PV3144, PV3616, and PV3617, respectively). Enzyme activity was measured in an HTRF® (homogeneous time resolved fluorescence) assay, which detects enzymatic phosphorylation of a biotinylated synthetic peptide substrate (an LCK peptide analog, biotin-ahx-[…], from Genemed Synthesis). Phosphorylation is assessed by HTRF® in the presence of an anti-phosphotyrosine antibody conjugated to Eu^3+ cryptate (Cisbio) as donor fluorophore, and streptavidin conjugated to allophycocyanin (ProZyme) as acceptor fluorophore. The HTRF® signal was detected at two different wavelengths (620 nm and 665 nm) which were used to calculate the fluorescence ratio.
TrkA enzyme was titrated to a concentration optimized to ensure accurate measurement of the initial reaction rate. To allow the TrkA enzyme to undergo activation and auto-phosphorylation, a 20 minute pre-incubation with ATP was carried out (at twice the final targeted enzyme and ATP concentration) prior to addition of test compound and the peptide substrate.
TrkA in vitro assays were performed by pre-incubating TrkA (2-10 nM) with ATP (200 μM) for 20 minutes at ambient temperature in 50 mM HEPES pH 7.4, 10 mM MgCl2, 2 mM MnCl2, 100 μM Na3VO4, 1 mM dithiothreitol, 0.01% BSA (bovine serum albumin). Then, to the activated Trk enzyme mixture was added the test compound in 2% dimethyl sulfoxide. After 10 minutes, the peptide substrate (125 nM) was added. After 1 hour, enzyme reactions were terminated by addition of equal reaction volumes of detection/stop reagent (containing 0.2 μg/mL anti-phosphotyrosine monoclonal antibody labeled with europium from Cisbio (catalog#PT66-K), and 4 μg/mL PhycoLink® Streptavidin-Allophycocyanin conjugate from ProZyme (catalog#PJ25S) in 60 mM EDTA in 40 mM HEPES pH 7.4, 480 mM KF, 0.01% Tween® 20 and 0.1% BSA bovine serum albumin) Reaction plates were stored at 4° C. overnight before reading the fluorescence ratio signal on a PerkinElmer EnVision™ fluorescence detector. Individual reaction wells were stopped at time points to obtain reaction rates. The test inhibitor compounds were assayed in duplicate, at half-log serial dilutions over a range of concentrations (e.g. starting at 50 μM or 5 μM as the high compound concentration). The percent Trk enzyme inhibition was calculated from the initial rates of the inhibited reactions relative to the uninhibited control. IC50 values were calculated by fitting the inhibition percent to the concentration of inhibitor [I] in the assay in equation 1 below, to solve for the IC50. Inhibition %=100[I]/([I]+[IC50]) equation 1
Background: TR-FRET usually uses a lanthanide donor and a delayed reading to cut background.

Chain of TrkA (P04629 33-796): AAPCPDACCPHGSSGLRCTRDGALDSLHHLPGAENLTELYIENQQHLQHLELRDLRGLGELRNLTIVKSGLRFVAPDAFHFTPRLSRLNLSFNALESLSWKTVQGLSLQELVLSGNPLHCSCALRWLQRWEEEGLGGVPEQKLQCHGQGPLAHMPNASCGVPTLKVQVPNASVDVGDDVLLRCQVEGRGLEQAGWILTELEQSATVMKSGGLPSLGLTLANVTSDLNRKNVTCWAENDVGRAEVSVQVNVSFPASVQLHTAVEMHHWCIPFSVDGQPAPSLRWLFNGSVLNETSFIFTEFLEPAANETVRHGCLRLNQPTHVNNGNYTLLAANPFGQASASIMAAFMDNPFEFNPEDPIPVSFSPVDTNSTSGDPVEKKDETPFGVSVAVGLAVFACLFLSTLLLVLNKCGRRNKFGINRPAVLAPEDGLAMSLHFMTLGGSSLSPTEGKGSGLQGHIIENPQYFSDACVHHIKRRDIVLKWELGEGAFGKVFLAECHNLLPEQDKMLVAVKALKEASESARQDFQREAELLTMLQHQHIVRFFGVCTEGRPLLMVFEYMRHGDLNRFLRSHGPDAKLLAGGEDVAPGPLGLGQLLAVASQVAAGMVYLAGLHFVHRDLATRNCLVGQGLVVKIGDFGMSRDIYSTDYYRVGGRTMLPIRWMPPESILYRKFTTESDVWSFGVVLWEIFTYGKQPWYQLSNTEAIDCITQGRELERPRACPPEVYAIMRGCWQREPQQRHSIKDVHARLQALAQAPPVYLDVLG

A word on the IC50: it is the concentration that gives 50% inhibition. A higher IC50 goes with a need for much substance. On to `O=C(Nc1cnccn1)c1coc2c1C(=O)NCC2` [Example 37, 4-oxo-N-(pyrazin-2-yl)-4,5,6,7-tetrahydrofuro[3,2-c]pyridine-3-carboxamide], for which half-maximal inhibition (IC50) required 3.21 µM.
Then `Cc1cc(NC(=O)c2coc3c2C(=O)NCC3)no1` [Example 38, N-(5-methyl-1,2-oxazol-3-yl)-4-oxo-4,5,6,7-tetrahydrofuro[3,2-c]pyridine-3-carboxamide], with 1.72 µM; and `N#Cc1ccc(NC(=O)c2coc3c2C(=O)NCC3)cc1` [Example 39, N-(4-cyanophenyl)-4-oxo-4,5,6,7-tetrahydrofuro[3,2-c]pyridine-3-carboxamide], with 0.43 µM.
Then `O=C(Nc1ccc(F)cn1)c1coc2c1C(=O)NCC2` [Example 40, N-(5-fluoropyridin-2-yl)-4-oxo-4,5,6,7-tetrahydrofuro[3,2-c]pyridine-3-carboxamide], with 3.24 µM.
The compound `COc1ccc(NC(=O)c2coc3c2C(=O)NCC3)cn1` [Example 41, N-(6-methoxypyridin-3-yl)-4-oxo-4,5,6,7-tetrahydrofuro[3,2-c]pyridine-3-carboxamide] displayed an IC50 of 1.39 µM.
With `O=C(Nc1ccc(Cl)cn1)c1coc2c1C(=O)NCC2` [Example 42, N-(5-chloropyridin-2-yl)-4-oxo-4,5,6,7-tetrahydrofuro[3,2-c]pyridine-3-carboxamide], the IC50 came out at 0.918 µM.
The compound `N#Cc1cccc(NC(=O)c2coc3c2C(=O)NCC3)c1` [Example 43, N-(3-cyanophenyl)-4-oxo-4,5,6,7-tetrahydrofuro[3,2-c]pyridine-3-carboxamide] registered an IC50 of 5.64 µM.
Then `CCOc1ccc(NC(=O)c2coc3c2C(=O)NCC3)cn1` [Example 44, N-(6-ethoxypyridin-3-yl)-4-oxo-4,5,6,7-tetrahydrofuro[3,2-c]pyridine-3-carboxamide], with 4.47 µM; and `Cc1n[nH]c2ccc(NC(=O)c3coc4c3C(=O)NCC4)cc12` [Example 45, N-(3-methyl-1H-indazol-5-yl)-4-oxo-4,5,6,7-tetrahydrofuro[3,2-c]pyridine-3-carboxamide], with 3.48 µM.
In turn, `Cc1cc2[nH]ncc2cc1NC(=O)c1coc2c1C(=O)NCC2` [Example 46, N-(6-methyl-1H-indazol-5-yl)-4-oxo-4,5,6,7-tetrahydrofuro[3,2-c]pyridine-3-carboxamide] gave an IC50 of 0.855 µM.
Take `O=C(Nc1nc2ccccc2s1)c1coc2c1C(=O)NCC2` [Example 47, N-(1,3-benzothiazol-2-yl)-4-oxo-4,5,6,7-tetrahydrofuro[3,2-c]pyridine-3-carboxamide]: inhibition was half-maximal at 1.22 µM (IC50).
Then `COC(=O)c1n[nH]c2ccc(NC(=O)c3coc4c3C(=O)NCC4)cc12` [Example 48, methyl 5-{[(4-oxo-4,5,6,7-tetrahydrofuro[3,2-c]pyridin-3-yl)carbonyl]amino}-1H-indazole-3-carboxylate], with 0.506 µM; and `CCN(CC)c1ccc(NC(=O)c2coc3c2C(=O)NCC3)cc1` [Example 49, N-[4-(diethylamino)phenyl]-4-oxo-4,5,6,7-tetrahydrofuro[3,2-c]pyridine-3-carboxamide], with 0.631 µM; and `CC(O)Cn1ncc2cc(NC(=O)c3coc4c3C(=O)NCC4)ccc21` (stereo not shown) [Example 50, N-[1-(2-hydroxypropyl)-1H-indazol-5-yl]-4-oxo-4,5,6,7-tetrahydrofuro[3,2-c]pyridine-3-carboxamide], with 0.0907 µM.
Then `CS(=O)(=O)NCCn1cc2cc(NC(=O)c3coc4c3C(=O)NCC4)ccc2n1` [Example 51, N-(2-{2-[(methylsulfonyl)amino]ethyl}-2H-indazol-5-yl)-4-oxo-4,5,6,7-tetrahydrofuro[3,2-c]pyridine-3-carboxamide], with 0.0189 µM; and `CN1CCN(CCn2cc3cc(NC(=O)c4coc5c4C(=O)NCC5)ccc3n2)CC1` [Example 52, N-{2-[2-(4-methylpiperazin-1-yl)ethyl]-2H-indazol-5-yl}-4-oxo-4,5,6,7-tetrahydrofuro[3,2-c]pyridine-3-carboxamide], with 0.0184 µM.
